Data published in patent publication US20260176289A1, “SMALL MOLECULE INHIBITORS OF KRAS PROTEINS” (Merck Sharp & Dohme LLC, priority 2022, published 2026).
Read-outs that look alike come from different tables or passages of the source.

Tests used:
KRAS-WT = KRAS-WT (Homo sapiens, UniProt P01116); experiment: SOS-catalyzed nucleotide exchange assay (Procedure A, TR-FRET), KRAS-WT; type: biochemical; details: nucleotide exchange, read-out: KRAS WT GNE IC50
How it was run: (§1)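 Inhibitors stabilizing the Bodipy-GDP state are detected as retained TR-FRET from a preformed biotinylated RAS/Tb-streptavidin complex. They are preincubated 60 min at room temperature, then human SOS and 3 mM GTP are added. G12V runs 90 min at 1.25 nM RAS/160 nM SOS. G12C (3 nM), WT (1 nM) and NRAS (1.25 nM) run 60 min with 40 nM SOS.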

KRAS-G12D = KRAS-G12D (Homo sapiens, UniProt P01116, G12D); experiment: SOS-catalyzed nucleotide exchange assay (Procedure A, TR-FRET), KRAS-G12D; type: biochemical; details: nucleotide exchange, read-out: KRAS G12D GNE IC50
How it was run: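 Signal ratio (520/495 nm, excitation 340 nm) reports Bodipy-GDP retention on biotinylated RAS after SOS-catalyzed exchange with 3 mM GTP. SOS was 40 nM, except 160 nM for G12V. Room-temperature exchange lasted 60 min (90 min for G12V), following a 60 min compound preincubation.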

KRAS-G12V = KRAS-G12V (Homo sapiens, UniProt P01116, G12V); experiment: SOS-catalyzed nucleotide exchange assay (Procedure A, TR-FRET), KRAS-G12V; type: biochemical; details: nucleotide exchange, read-out: KRAS G12V GNE IC50
How it was run: as §1

AsPC-1 cells = experiment: Cellular phospho-ERK assay, AsPC-1 cells (homozygous KRAS-G12D); type: cell-based; details: Homo sapiens, ASPC1, 2 h, read-out: AsPC1 pERK IC50
How it was run: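 Overnight-plated cells on collagen received test compound (up to 30 μM final, threefold steps, ten concentrations) for two hours. After lysis at room temperature, phosphorylated and total ERK were quantified together by Alpha SureFire, and IC50 is based on the phospho-to-total signal ratio.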

Chain of KRAS-G12D (P01116 with tags, fused parts or gaps isoform P01116-2 G12D): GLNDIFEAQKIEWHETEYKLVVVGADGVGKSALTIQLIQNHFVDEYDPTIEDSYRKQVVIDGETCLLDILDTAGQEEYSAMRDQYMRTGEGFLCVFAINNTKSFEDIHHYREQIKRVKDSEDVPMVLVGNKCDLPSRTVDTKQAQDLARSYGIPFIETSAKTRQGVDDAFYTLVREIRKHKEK
Chain of KRAS-G12V (P01116 with tags, fused parts or gaps isoform P01116-2 G12V): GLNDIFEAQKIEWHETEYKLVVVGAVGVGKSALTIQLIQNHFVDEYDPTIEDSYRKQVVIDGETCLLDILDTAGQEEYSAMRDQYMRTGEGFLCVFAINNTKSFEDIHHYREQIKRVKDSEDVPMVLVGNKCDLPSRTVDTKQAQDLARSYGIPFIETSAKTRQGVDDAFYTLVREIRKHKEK
Chain of KRAS-WT (P01116 with tags, fused parts or gaps isoform P01116-2): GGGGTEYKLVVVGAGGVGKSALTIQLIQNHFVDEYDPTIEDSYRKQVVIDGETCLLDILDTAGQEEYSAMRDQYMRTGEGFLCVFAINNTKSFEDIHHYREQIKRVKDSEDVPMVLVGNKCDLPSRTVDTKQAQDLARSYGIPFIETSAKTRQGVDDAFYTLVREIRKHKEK

Cc1cc2[nH]ncc2c(-c2nncc3c2sc2nc(OC[C@@]45CCCN4C[C@H](F)C5)nc(N4CCOC[C@@](C)(O)C4)c23)c1-c1ccco1 [Ex-281, (6S)-4-(2-(((2R,7aS)-2-fluorotetrahydro-1H-pyrrolizin-7a(5H)-yl)methoxy)-8-(5-(furan-2-yl)-6-methyl-1H-indazol-4-yl)pyrimido[5′,4′:4,5]thie-no[2,3-d]pyridazin-4-yl)-6-methyl-1,4-oxazepan-6-ol]
IC50 (KRAS-WT): 0.0312 µM
IC50 (KRAS-G12D): 0.00824 µM
IC50 (KRAS-G12V): 0.0117 µM
IC50 (AsPC-1 cells; KRAS-G12D, 2 hours): 0.355 µM

C[C@@]1(O)COCCN(c2nc(OC[C@@]34CCCN3C[C@H](F)C4)nc3sc4c(-c5c(C67CC(C6)C7)ccc6[nH]ncc56)nccc4c23)C1 [Ex-42, (6S)-4-(8-(5-(bicyclo[1.1.1]pentan-1-yl)-1H-indazol-4-yl)-2-(((2R,7aS)-2-fluorotetrahydro-1H-pyrrolizin-7a(5H)-yl)methoxy)pyrido[4′,3′:4,5]thi-eno[2,3-d]pyrimidin-4-yl)-6-methyl-1,4-oxazepan-6-ol]
IC50 (KRAS-WT): 0.286 µM
IC50 (KRAS-G12D): 0.135 µM
IC50 (KRAS-G12V): 0.144 µM
IC50 (AsPC-1 cells; KRAS-G12D, 2 hours): 1.38 µM

CN(C)C1CC(F)(F)C2C[C@]12COc1nc(N2CCOC[C@@](C)(O)C2)c2c(n1)sc1c(-c3c(C4(F)CC4)c(Cl)cc4[nH]ncc34)nccc12 (stereo partly drawn) [Ex-270, (6S)-4-(8-(6-chloro-5-(1-fluorocyclopropyl)-1H-indazol-4-yl)-2-((2-(dimethylamino)-4,4-difluorobicy-clo[3.1.0]hexan-1-yl)methoxy)pyri-do[4′,3′:4,5]thi-eno[2,3-d]pyrimidin-4-yl)-6-methyl-1,4-oxazepan-6-ol]
IC50 (KRAS-WT): 0.0279 µM
IC50 (KRAS-G12D): 0.00878 µM
IC50 (KRAS-G12V): 0.0309 µM
IC50 (AsPC-1 cells; KRAS-G12D, 2 hours): 0.142 µM

C=C(c1c(C)cc2[nH]ncc2c1-c1nccc2c1sc1nc(OC[C@@]34CCCN3C[C@H](F)C4)nc(N3CCOC[C@@](C)(O)C3)c12)C(F)(F)F [Ex-66, (6S)-4-(2-(((2R,7aS)-2-fluorotetrahydro-1H-pyrrolizin-7a(5H)-yl)methoxy)-8-(6-methyl-5-(3,3,3-trifluoroprop-1-en-2-yl)-1H-indazol-4-yl)pyrido[4′,3′:4,5]thieno [2,3-d]pyrimidin-4-yl)-6-methyl-1,4-oxazepan-6-ol]
IC50 (KRAS-WT): 0.218 µM
IC50 (KRAS-G12D): 0.0936 µM
IC50 (KRAS-G12V): 0.0579 µM
IC50 (AsPC-1 cells; KRAS-G12D, 2 hours): 0.457 µM

COCC12CC(CN1C[C@@]1(COc3nc(N4CCOC[C@@](C)(O)C4)c4c(n3)sc3c(-c5c(C6(F)CC6)c(Cl)cc6[nH]ncc56)nccc34)CC1(F)F)C2 [Ex-258, (6S)-4-(8-(6-chloro-5-(1-fluorocyclopropyl)-1H-indazol-4-yl)-2-(((R)-2,2-difluoro-1-((1-(methoxymethyl)-2-azabicyclo[2.1.1]hexan-2-yl)methyl)cyclopropyl)metho-xy)pyrido[4′,3′:4,5]thieno[2,3-d]pyrimidin-4-yl)-6-methyl-1,4-oxazepan-6-ol]
IC50 (KRAS-WT): 0.0388 µM
IC50 (KRAS-G12D): 0.007 µM
IC50 (KRAS-G12V): 0.0252 µM
IC50 (AsPC-1 cells; 2 hours compound incubation): 0.124 µM

Cc1cc2[nH]ncc2c(-c2nc(-c3ccoc3)cc3c2sc2nc(OC[C@@]45CCCN4C[C@H](F)C5)nc(N4CCOC[C@@](C)(O)C4)c23)c1C(F)(F)F [Ex-29, (6S)-4-(2-(((2R,7aS)-2-fluorotetrahydro-1H-pyrrolizin-7a(5H)-yl)methoxy)-6-(furan-3-yl)-8-(6-methyl-5-(trifluoromethyl)-1H-indazol-4-yl)pyrido[4′,3′:4,5]thieno[2,3-d]pyrimidin-4-yl)-6-methyl-1,4-oxazepan-6-ol]
IC50 (KRAS-WT): 0.852 µM
IC50 (KRAS-G12D): 0.251 µM
IC50 (KRAS-G12V): 0.143 µM
IC50 (AsPC-1 cells; KRAS-G12D, 2 hours): 1.53 µM

Cc1cc2[nH]ncc2c(-c2nccc3c2sc2nc(O[C@@H](C)[C@@H]4CCCN4C)nc(N4CCOC[C@@](C)(O)C4)c23)c1C(F)(F)F [Ex-204, (6S)-6-methyl-4-(8-(6-methyl-5-(trifluoromethyl)-1H-indazol-4-yl)-2-((S)-1-((S)-1-methylpyrrolidin-2-yl)ethoxy)pyrido[4′,3′:4,5]thieno[2,3-d]pyrimidin-4-yl)-1,4-oxazepan-6-ol]
IC50 (KRAS-WT): 0.936 µM
IC50 (KRAS-G12D): 0.339 µM
IC50 (KRAS-G12V): 0.239 µM
IC50 (AsPC-1 cells; 2 hours compound incubation): 2.31 µM

C[C@@]1(O)COCCN(c2nc(OC[C@]3(CN4C[C@@H]5C[C@H]4CO5)CC3(F)F)nc3sc4c(-c5c(C6(F)CC6)c(Cl)cc6[nH]ncc56)nccc4c23)C1 [Ex-236, (6S)-4-(2-(((R)-1-(((15,4S)-2-oxa-5-azabicyclo[2.2.1]heptan-5-yl)methyl)-2,2-difluorocyclopropyl)methoxy)-8-(6-chloro-5-(1-fluorocyclopropyl)-1H-indazol-4-yl)pyrido[4′,3′:4,5]thieno[2,3-d]pyrimidin-4-yl)-6-methyl-1,4-oxazepan-6-ol]
IC50 (KRAS-WT): 0.121 µM
IC50 (KRAS-G12D): 0.0163 µM
IC50 (KRAS-G12V): 0.0348 µM
IC50 (AsPC-1 cells; 2 hours compound incubation): 0.242 µM

Cc1cc2[nH]ncc2c(-c2nccn3c2cc2nc(OC[C@@]45CCCN4C[C@H](F)C5)nc(N4CCOC[C@@](C)(O)C4)c23)c1C1CC1 [Ex-295, (S)-4-(9-(5-cyclopropyl-6-methyl-1H-indazol-4-yl)-2-(((2R,7aS)-2-fluorotetrahydro-1H-pyrrolizin-7a(5H)-yl)methoxy)pyrazino[1′,2′:1,5]pyrrolo[3,2-d]pyrimidin-4-yl)-6-methyl-1,4-oxazepan-6-ol]
IC50 (KRAS-WT): 0.185 µM
IC50 (KRAS-G12D): 0.0721 µM
IC50 (KRAS-G12V): 0.0982 µM
IC50 (AsPC-1 cells; KRAS-G12D, 2 hours): 1.9 µM

CN1CC[C@H]2C(Oc3nc(N4CCOC[C@@](C)(O)C4)c4c(n3)sc3c(-c5c(C6CC6)c(Cl)cc6[nH]ncc56)nccc34)C[C@H]21 (stereo partly drawn) [Ex-216, (6S)-4-(8-(6-chloro-5-cyclopropyl-1H-indazol-4-yl)-2-(((1R,5R,6S)-2-methyl-2-azabicyclo [3.2.0]heptan-6-yl)-oxy)pyrido[4′,3′: 4,5]thieno[2,3-d]pyrimidin-4-yl)-6-methyl-1,4-oxaze-pam-6-ol]
IC50 (KRAS-WT): 1.59 µM
IC50 (KRAS-G12D): 0.464 µM
IC50 (KRAS-G12V): 0.864 µM
IC50 (AsPC-1 cells; 2 hours compound incubation): 2.9 µM

C[C@@]1(O)COCCN(c2nc(OC[C@]3(CN4[C@@H]5CC[C@H]4C[C@@H](F)C5)CC3(F)F)nc3sc4c(-c5c(C6(F)CC6)c(Cl)cc6[nH]ncc56)nccc4c23)C1 [Ex-242, (6S)-4-(8-(6-chloro-5-(1-fluorocyclopropyl)-1H-indazol-4-yl)-2-(((R)-2,2-difluoro-1-(((1R,3R,5S)-3-fluoro-8-azabicyclo[3.2.1]octan-8-yl)methyl)cyclopropyl)metho-xy)pyrido[4′,3′:4,5]thieno[2,3-d]pyrimidin-4-yl)-6-methyl-1,4-oxazepan-6-ol]
IC50 (KRAS-WT): 0.694 µM
IC50 (KRAS-G12D): 0.0907 µM
IC50 (KRAS-G12V): 0.348 µM
IC50 (AsPC-1 cells; 2 hours compound incubation): 1.15 µM

COC(=O)c1cc2[nH]ncc2c(-c2nccc3c2sc2nc(OC[C@@]45CCCN4C[C@H](F)C5)nc(N4CCOC[C@@](C)(O)C4)c23)c1C1CC1 [Ex-49, Methyl 5-cyclopropyl-4-(2-(((2R,7aS)-2-fluorotetrahydro-1H-pyrrolizin-7a(5H)-yl)methoxy)-4-((S)-6-hydroxy-6-methyl-1,4-oxazepan-4-yl)pyrido[4′,3′:4,5]thieno [2,3-d]pyrimidin-8-yl)-1H-indazole-6-carboxylate]
IC50 (KRAS-WT): 0.0741 µM
IC50 (KRAS-G12D): 0.0396 µM
IC50 (KRAS-G12V): 0.0593 µM
IC50 (AsPC-1 cells; KRAS-G12D, 2 hours): 1.93 µM
